Data set [1] is described as follows: physchem. The note with it: buffer, pH 7.
Data set [2] can be described thus: in vitro. Conditions: rat, microsomes.
A short description of data set [3]: in vitro. The note with it: human, microsomes.
Data set [4] can be described thus: physchem. Conditions: buffer, pH 2.
Data set [5] in a line: in vivo. Conditions: rat, po, 50 mg/kg.
A short description of data set [6]: in vivo. Conditions: rat, po, 200 mg/kg.
Data set [7] can be described thus: in vivo. Conditions: rat, po, 50 mg/kg. The source holds these as a separate data set.
The nature of data set [8]: in vivo. Conditions: rat, po, 200 mg/kg. This is another data set of the same source.
Data set [9] is described as follows: in vivo. The note with it: rat, po, 50 mg/kg. This is another data set of the same source.
A short description of data set [10]: in vivo. The note with it: rat, po, 200 mg/kg. The source holds these as a separate data set.
Data set [11] in a line: in vivo. The note with it: rat, po, 50 mg/kg. This is another data set of the same source.
The nature of data set [12]: in vivo. Conditions: rat, po, 200 mg/kg. This is another data set of the same source.
Data set [13] is described as follows: in vivo. Conditions: rat, po, 50 mg/kg. This is another data set of the same source.
Data set [14] can be described thus: in vivo. The note with it: rat, po, 200 mg/kg. The source holds these as a separate data set.
A short description of data set [15]: in vivo. The note with it: rat, po, 50 mg/kg. This is another data set of the same source.
Data set [16] can be described thus: in vivo. The note with it: rat, po, 200 mg/kg. This is another data set of the same source.

SMILES strings stand for the structures. Values after ≈ are worked out from the molar mass of the structure shown.

In data set [1], `CC(C)(O)CNC(=O)c1nc(CC2CCCCC2)c(-c2ccc(S(=O)(=O)NC(C)(C)C)c3ccccc23)s1` had a solubility of under 1 µM. Moreover, the half-life in data set [2] worked out at 0.783 h; in data set [3], 1.25 h.
Consider `C[C@H](NS(=O)(=O)c1ccc(-c2sc(C(=O)NCC(C)(C)O)nc2C(=O)N2CC[C@H](F)C[C@@H]2C)c(Cl)c1Cl)C(F)(F)F`, for which the solubility is 54 µM (≈ 35.8 µg/mL) in [1] and 40 µM (≈ 26.5 µg/mL) in data set [4]. Also, the results for the half-life in data set [2] and in [3] were 1.13 h and over 3 h, respectively.
The corresponding values for `C[C@H](NS(=O)(=O)c1ccc(-c2sc(C(=O)NCC(C)(C)O)nc2C(=O)N2CCCC[C@@H]2C)c(Cl)c1Cl)C(F)(F)F` are 21 µM (≈ 13.6 µg/mL), 19 µM (≈ 12.3 µg/mL), 0.817 h and over 3 h.
For the compound `CC(C)(O)CNC(=O)c1nc(C(=O)N2CCCCC2)c(-c2ccc(S(=O)(=O)NC(C)(C)C)c3ccccc23)s1`, the solubility in data set [1] is 1.1 µM (≈ 0.63 µg/mL). Also, the figures for the half-life in data set [2] and in data set [3] were 0.2 h and 1.35 h, respectively.
Turning to `CC[C@H](NS(=O)(=O)c1ccc(-c2sc(C(=O)NCC(C)(C)O)nc2C(=O)N(CC)CC)c(Cl)c1Cl)C(F)(F)F`, the solubility in data set [1] is 44 µM (≈ 27.9 µg/mL); in [4] it was 32 µM (≈ 20.3 µg/mL). Further, the half-life in data set [2] and in [3] was over 3 h each time.
In the case of `C[C@H](NS(=O)(=O)c1ccc(-c2sc(C(=O)NCC(C)(C)O)nc2C(=O)N2CC[C@@H](F)C[C@@H]2C)c(Cl)c1Cl)C(F)(F)F`, the solubility in [1] was 47 µM (≈ 31.2 µg/mL); in data set [4] it was 41 µM (≈ 27.2 µg/mL).
For the compound `C[C@H](NS(=O)(=O)c1ccc(-c2sc(C(=O)NCC(C)(C)O)nc2C(=O)N2CCC(F)CC2)c(Cl)c1Cl)C(F)(F)F`, the values for the Cmax in data set [5] and in [6] were 11200 ng/mL and 49400 ng/mL, respectively. In addition, the AUC turned out to be 31500 ng·h/mL in [7]; 282000 ng·h/mL in [8]; 870 ng·h/mL in data set [11]; 6000 ng·h/mL in [12]; 1110 ng·h/mL in data set [15]; 5020 ng·h/mL in data set [16]. In addition, the Cmax at 4 day in data set [9] stood at 252 ng/mL; in data set [10] it was 1900 ng/mL. Moreover, the Cmax at 14 day in data set [13] worked out at 417 ng/mL; in data set [14], 1280 ng/mL. In addition, the figures for the solubility in [1] and in [4] were 116 µM (≈ 75.3 µg/mL) and 114 µM (≈ 74 µg/mL), respectively. For the same compound, the half-life in data set [2] and in [3] was over 3 h in each case.
Take `C[C@H](NS(=O)(=O)c1ccc(-c2sc(C(=O)NCC(C)(C)O)nc2C(=O)N2CC3CC3C2)c(Cl)c1Cl)C(F)(F)F` (some centres undefined): the solubility stood at 8.7 µM (≈ 5.48 µg/mL) in data set [1] and 7 µM (≈ 4.41 µg/mL) in [4].
In the case of `C[C@H](NS(=O)(=O)c1ccc(-c2sc(NC(=O)CC(C)(C)O)nc2C(=O)N2CCC(F)CC2)c(Cl)c1Cl)C(F)(F)F`, the solubility worked out at 15 µM (≈ 9.74 µg/mL) in data set [1] and 16 µM (≈ 10.4 µg/mL) in data set [4]. Further, the half-life is 2.45 h in data set [2] and over 3 h in data set [3].
As to `C[C@H](NS(=O)(=O)c1ccc(-c2sc(C(=O)NCC(C)(C)O)nc2C(=O)N2CCC[C@@H]2CF)c(Cl)c1Cl)C(F)(F)F`, the solubility in [1] was 4 µM (≈ 2.6 µg/mL); in data set [4], under 4 µM.

(Values after ChEMBL document CHEMBL4619752, “Optimization and biological evaluation of thiazole-bis-amide inverse agonists of RORγt” (Bioorg Med Chem Lett, 2020).)
